Like-named read-outs stand apart in the source and are kept apart here.
Molecular target: T1, mouse ENaC (Mus musculus, UniProt Q61180+Q9WU38+Q9WU39, DEL206-231)
T1 construct: expressed in transfected cells; host or cells: Xenopus laevis oocytes (cRNA injection)
T1 sequence (Q61180 with tags, fused parts or gaps DEL206-231): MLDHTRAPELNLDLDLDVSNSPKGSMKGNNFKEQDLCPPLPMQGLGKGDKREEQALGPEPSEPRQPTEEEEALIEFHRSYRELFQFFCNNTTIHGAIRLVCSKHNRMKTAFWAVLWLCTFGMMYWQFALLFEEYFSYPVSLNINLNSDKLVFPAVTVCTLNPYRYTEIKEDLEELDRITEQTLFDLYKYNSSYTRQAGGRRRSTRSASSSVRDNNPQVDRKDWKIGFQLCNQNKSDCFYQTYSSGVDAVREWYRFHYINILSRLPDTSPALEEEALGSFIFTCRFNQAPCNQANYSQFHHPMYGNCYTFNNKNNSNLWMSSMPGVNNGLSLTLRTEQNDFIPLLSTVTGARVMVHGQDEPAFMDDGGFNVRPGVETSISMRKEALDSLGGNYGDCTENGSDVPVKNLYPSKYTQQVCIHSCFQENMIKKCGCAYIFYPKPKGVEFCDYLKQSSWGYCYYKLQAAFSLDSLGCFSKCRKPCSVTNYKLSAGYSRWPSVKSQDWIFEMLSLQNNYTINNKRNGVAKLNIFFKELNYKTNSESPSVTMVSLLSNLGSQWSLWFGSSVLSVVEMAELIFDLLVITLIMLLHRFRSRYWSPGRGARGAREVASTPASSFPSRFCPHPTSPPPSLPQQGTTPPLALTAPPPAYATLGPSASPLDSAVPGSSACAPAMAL
T1 sequence (Q9WU38 1-638): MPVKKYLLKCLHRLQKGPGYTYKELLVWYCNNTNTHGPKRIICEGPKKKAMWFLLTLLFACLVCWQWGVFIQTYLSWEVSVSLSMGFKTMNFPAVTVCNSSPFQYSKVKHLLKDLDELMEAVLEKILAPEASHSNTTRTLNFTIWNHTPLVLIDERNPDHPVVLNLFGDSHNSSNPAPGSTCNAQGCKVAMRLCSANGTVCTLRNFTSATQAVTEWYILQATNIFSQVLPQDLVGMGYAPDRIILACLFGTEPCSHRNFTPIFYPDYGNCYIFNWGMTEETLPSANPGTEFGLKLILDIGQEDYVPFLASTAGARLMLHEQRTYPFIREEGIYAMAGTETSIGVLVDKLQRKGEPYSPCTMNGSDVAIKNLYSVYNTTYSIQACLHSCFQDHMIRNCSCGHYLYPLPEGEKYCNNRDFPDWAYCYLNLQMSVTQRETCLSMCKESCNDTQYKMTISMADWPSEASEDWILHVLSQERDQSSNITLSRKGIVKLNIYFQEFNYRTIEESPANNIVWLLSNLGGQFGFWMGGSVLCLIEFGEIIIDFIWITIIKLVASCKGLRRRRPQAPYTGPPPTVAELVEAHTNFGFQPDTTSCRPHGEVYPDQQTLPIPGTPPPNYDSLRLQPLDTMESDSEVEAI
T1 sequence (Q9WU39 1-655): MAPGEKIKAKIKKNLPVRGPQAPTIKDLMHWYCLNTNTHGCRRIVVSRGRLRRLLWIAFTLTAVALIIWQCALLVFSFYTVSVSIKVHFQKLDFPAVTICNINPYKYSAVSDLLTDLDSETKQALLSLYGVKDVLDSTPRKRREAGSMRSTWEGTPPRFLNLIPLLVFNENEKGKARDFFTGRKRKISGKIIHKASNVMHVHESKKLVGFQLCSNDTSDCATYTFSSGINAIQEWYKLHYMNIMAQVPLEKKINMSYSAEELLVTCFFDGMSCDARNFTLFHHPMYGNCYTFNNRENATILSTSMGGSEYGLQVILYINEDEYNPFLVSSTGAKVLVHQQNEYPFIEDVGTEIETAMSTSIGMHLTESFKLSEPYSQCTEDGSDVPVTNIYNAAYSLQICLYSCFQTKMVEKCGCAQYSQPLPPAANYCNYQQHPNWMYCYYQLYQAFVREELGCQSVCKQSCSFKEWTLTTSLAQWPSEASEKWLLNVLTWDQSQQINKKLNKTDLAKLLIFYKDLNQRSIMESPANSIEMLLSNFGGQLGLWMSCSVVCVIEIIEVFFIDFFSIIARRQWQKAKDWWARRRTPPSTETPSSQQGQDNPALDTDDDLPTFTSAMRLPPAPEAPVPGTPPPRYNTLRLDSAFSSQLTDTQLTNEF
Experiment: Two-electrode voltage clamp, amiloride-sensitive whole cell Na+ current in Xenopus oocytes expressing wild-type αβγ ENaC
Assay type: cell-based
Excerpt: Oocyte Expression—cRNAs for α, β, γ mouse ENaC (wild-type and mutant) subunits and mouse prostasin were synthesized with T3 or T7 m-Message mMachineTM (Ambion, Austin, Tex.). Subunits carrying furin cleavage consensus site mutations and the corresponding wild-type subunits have amino-terminal HA and carboxyl-terminal V5 tags (Hughey, R. P., Bruns, J. B., Kinlough, C. L., Harkleroad, K. L., Tong, Q., Carattino, M. D., Johnson, J. P., Stockand, J. D., and Kleyman, T. R. (2004) J. Biol. Chem. 279, 18111-18114 18). Stage V-VI Xenopus laevis oocytes were pretreated with 1.5 mg/ml of type IV collagenase and injected with 0.5-2 ng of cRNA/subunit. Injected oocytes were maintained as previously reported (Carattino, M. D., Hill, W. G., and Kleyman, T. R. (2003), Arachidonic Acid Regulates Surface Expression of Epithelial Sodium Channels, J Biol. Chem. 278, 36202-36213 29).
Two-electrode Voltage Clamp—Two-electrode voltage clamp (TEV) was performed as previously described (Carattino, M. D., Hill, W. G., and Kleyman, T. R. (2003) J Biol. Chem. 278, 36202-36213 29). The extracellular solution (TEV solution) was (in mM): 110 NaCl, 2 KCl, 1.54 CaCl2, 10 HEPES, pH 7.4, or otherwise as indicated. […] Experiments with oocytes co-expressing ENaC and prostasin and the corresponding controls were performed in the presence of aprotinin (1 μM) to impede any potential degradation of α-26 by prostasin.
Data and Statistical Analyses—and mean time of inhibition are expressed as the mean with a 95% confidence interval (CI); otherwise, data were expressed as the mean ±S.E. (n), where “n” equals the number of independent experiments analyzed. IC50 was estimated from normalized currents plotted as a function of the peptide concentration fitted, as shown in Equation 1 y=t/(1+10^(logX−log/C50)) (Eq. 1) where y is the response variable, X is the concentration of peptide, and IC50 is the concentration of peptide that provokes a response half way between the baseline (t) and maximum response. […] Results

## Ac-DLRGALPHPLQRLRTPPPPNPARSAR-NH2 [α-26]
  Ki: ~3000 nM
1 μM α-26
  time required to achieve half maximal inhibition: 42 s
amiloride-sensitive current, 3 min perfusion with peptide (FIG. 3A), read-out: IC50, inhibition of wild-type αβγ
  IC50: 2800 nM
Holding potential −20 mV, read-out: IC50 at holding potential −20 mV
  IC50: 2900 nM
Holding potential −100 mV, read-out: IC50 at holding potential −100 mV
  IC50: 2900 nM
α-26 1 μM, washout (FIG. 3D)
  reversibility of block: reversible inhibitor
